{"source": "ChEMBL document CHEMBL5226341", "about": "“Discovery of a Potent FLT3 Inhibitor (LT-850-166) with the Capacity of Overcoming a Variety of FLT3 Mutations” (J Med Chem, 2021)", "key": {"BaF3 [1]": {"test_system": "BaF3", "test": "Antiproliferative activity against mouse BaF3 cells harboring FLT3-ITD-F691L mutant assessed as residual cell viability at 10 nM incubated for 72 hrs by CellTiterGlo luminescent assay", "format": "functional"}, "[2]": {"test": "Antiproliferative activity against mouse BaF3 cells assessed as reduction in cell viability measured after 72 hrs by CellTiterGlo luminescent assay", "format": "toxicity, cell-based"}, "BaF3 [3]": {"test_system": "BaF3", "test": "Antiproliferative activity against mouse BaF3 cells harboring FLT3-ITD mutant assessed as reduction in cell viability measured after 72 hrs by CellTiterGlo luminescent assay", "format": "functional, cell-based", "settings": "BaF3, 72 h"}, "[4]": {"test": "Ratio of IC50 for antiproliferative activity against mouse BaF3 cells harboring FLT3-ITD-Y842H mutant to IC50 for antiproliferative activity against mouse BaF3 cells harboring FLT3-ITD mutant", "format": "functional"}, "[5]": {"test": "Ratio of IC50 for antiproliferative activity against mouse BaF3 cells harboring FLT3-ITD-N676D mutant to IC50 for antiproliferative activity against mouse BaF3 cells harboring FLT3-ITD mutant", "format": "functional"}, "[6]": {"test": "Antiproliferative activity against mouse HCD-57 cells assessed as reduction in cell viability measured after 72 hrs by CellTiterGlo luminescent assay", "format": "toxicity, cell-based", "settings": "hcd-57, 72 h"}, "HCD-57": {"test_system": "HCD-57", "test": "Antiproliferative activity against mouse HCD-57 cells harboring FLT3-D835Y mutant assessed as reduction in cell viability measured after 72 hrs by CellTiterGlo luminescent assay", "format": "functional, cell-based"}, "HCT-116": {"test_system": "HCT-116", "test": "Antiproliferative activity against human HCT-116 cells assessed as reduction in cell viability measured after 72 hrs by CellTiterGlo luminescent assay", "format": "functional, cell-based", "settings": "HCT-116, 72 h"}, "MKN-45": {"test_system": "MKN-45", "test": "Antiproliferative activity against human MKN-45 cells assessed as reduction in cell viability measured after 72 hrs by CellTiterGlo luminescent assay", "format": "functional, cell-based", "settings": "MKN-45, 72 h"}, "MOLM-13": {"test_system": "MOLM-13", "test": "Antiproliferative activity against human MOLM-13 cells assessed as reduction in cell viability measured after 72 hrs by CellTiterGlo luminescent assay", "format": "functional, cell-based", "settings": "MOLM-13, 72 h"}, "[7]": {"target": "Receptor-type tyrosine-protein kinase FLT3 (Homo sapiens) (UniProt P36888)", "sequence (P36888 whole entry)": "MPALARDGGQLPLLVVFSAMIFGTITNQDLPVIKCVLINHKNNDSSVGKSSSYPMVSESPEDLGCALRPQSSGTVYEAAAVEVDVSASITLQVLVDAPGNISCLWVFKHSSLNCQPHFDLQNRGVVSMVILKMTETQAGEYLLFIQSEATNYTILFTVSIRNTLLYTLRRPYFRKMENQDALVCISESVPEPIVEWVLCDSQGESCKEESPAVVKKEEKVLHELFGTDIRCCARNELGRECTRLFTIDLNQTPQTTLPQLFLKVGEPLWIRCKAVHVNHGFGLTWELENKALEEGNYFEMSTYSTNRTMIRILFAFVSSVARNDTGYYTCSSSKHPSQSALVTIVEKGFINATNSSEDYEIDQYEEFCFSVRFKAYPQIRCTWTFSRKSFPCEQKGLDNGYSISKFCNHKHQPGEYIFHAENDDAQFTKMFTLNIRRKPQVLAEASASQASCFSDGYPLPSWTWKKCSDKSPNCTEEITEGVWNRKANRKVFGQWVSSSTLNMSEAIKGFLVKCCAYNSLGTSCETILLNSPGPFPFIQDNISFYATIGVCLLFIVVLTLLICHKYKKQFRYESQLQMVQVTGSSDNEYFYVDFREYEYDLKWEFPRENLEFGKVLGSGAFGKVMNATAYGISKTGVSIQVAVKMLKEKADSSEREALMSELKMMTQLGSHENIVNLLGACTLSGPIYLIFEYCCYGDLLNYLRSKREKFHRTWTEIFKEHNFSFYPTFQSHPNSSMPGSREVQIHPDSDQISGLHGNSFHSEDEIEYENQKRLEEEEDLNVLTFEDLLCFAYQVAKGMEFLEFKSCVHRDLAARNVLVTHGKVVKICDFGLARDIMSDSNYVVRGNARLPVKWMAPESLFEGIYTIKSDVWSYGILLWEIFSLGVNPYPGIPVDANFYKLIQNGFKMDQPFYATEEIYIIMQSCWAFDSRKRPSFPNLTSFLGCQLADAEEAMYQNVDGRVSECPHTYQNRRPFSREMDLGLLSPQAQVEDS", "test": "Inhibition of FLT3 in human MV4-11 cells assessed as inhibition of ERK phosphorylation at Thr202/Tyr204 residue incubated for 4 hrs by western blot analysis", "format": "cell-based", "settings": "dose 0.1-100 nM"}, "[8]": {"test_system": "Receptor-type tyrosine-protein kinase FLT3 (Homo sapiens), P36888 [UNDEFINED MUTATION]", "sequence (P36888 whole entry, looked up, change not shown)": "as the sequence (P36888 whole entry) above", "format": "cell-based", "settings": "BaF3, dose 0.1-100 nM, time 4.0 hrs"}, "[9]": {"test_system": "Receptor-type tyrosine-protein kinase FLT3 (Homo sapiens), P36888 [UNDEFINED MUTATION]", "format": "cell-based", "settings": "BaF3, dose 0.1-100 nM, time 4.0 hrs", "remark": "listed apart in the source"}, "MV4-11 [10]": {"test_system": "MV4-11", "test": "Induction of apoptosis in human MV4-11 cells assessed as viable cells at 10 nM incubated for 24 hrs by AnnexinV-FITC/PI staining based flow cytometry (reference value: 92.3%)", "format": "functional", "settings": "read-out: Activity"}, "MV4-11 [11]": {"test_system": "MV4-11", "test": "Induction of apoptosis in human MV4-11 cells assessed as early apoptotic cells at 10 nM incubated for 24 hrs by AnnexinV-FITC/PI staining based flow cytometry (reference value: 3.09%)", "format": "functional"}, "MV4-11 [12]": {"test_system": "MV4-11", "test": "Induction of apoptosis in human MV4-11 cells assessed as necrotic cells at 10 nM incubated for 24 hrs by AnnexinV-FITC/PI staining based flow cytometry (reference value: 0.45%)", "format": "functional"}, "MV4-11 [13]": {"test_system": "MV4-11", "test": "Induction of apoptosis in human MV4-11 cells assessed as necrotic cells at 50 nM incubated for 24 hrs by AnnexinV-FITC/PI staining based flow cytometry (reference value: 0.45%)", "format": "functional"}, "MV4-11 [14]": {"test_system": "MV4-11", "test": "Induction of apoptosis in human MV4-11 cells assessed as late apoptotic cells at 100 nM incubated for 24 hrs by AnnexinV-FITC/PI staining based flow cytometry (reference value: 4.2%)", "format": "functional"}, "MV4-11 [15]": {"test_system": "MV4-11", "test": "Induction of apoptosis in human MV4-11 cells assessed as necrotic cells at 100 nM incubated for 24 hrs by AnnexinV-FITC/PI staining based flow cytometry (reference value: 0.45%)", "format": "functional"}, "MV4-11 [16]": {"test_system": "MV4-11", "test": "Induction of cell cycle arrest in human MV4-11 cells assessed as proportion of cells at G1 phase at 100 nM incubated for 24 hrs by PI staining based flow cytometry (reference value: 56%)", "format": "functional"}, "[17]": {"test": "Induction of cell cycle arrest in mouse HCD-57 cells at 100 nM incubated for 24 hrs by PI staining based flow cytometry", "format": "toxicity", "settings": "hcd-57, 24 h, 0.1 µM"}, "[18]": {"test": "Half-life in Sprague-Dawley rat at 1 mg/kg, iv measured for 24 hrs by LC-MS/MS analysis", "format": "ADME, organism-based", "settings": "in vivo"}, "[19]": {"test": "Clearance in Sprague-Dawley rat at 1 mg/kg, iv measured for 24 hrs by LC-MS/MS analysis", "format": "ADME, organism-based", "settings": "in vivo"}, "[20]": {"test": "Volume of distribution at steady state in Sprague-Dawley rat at 1 mg/kg, iv measured for 24 hrs by LC-MS/MS analysis", "format": "ADME, organism-based", "settings": "in vivo, read-out: Vdss"}, "[21]": {"test": "AUC (0 to t) in Sprague-Dawley rat at 10 mg/kg, po measured for 24 hrs by LC-MS/MS analysis", "format": "ADME, organism-based", "design": "time 24 hrs, dose 10 mg/kg, route po", "settings": "in vivo"}, "[22]": {"test": "Half life in Sprague-Dawley rat at 10 mg/kg, po measured for 24 hrs by LC-MS/MS analysis", "format": "ADME, organism-based", "settings": "in vivo"}, "[23]": {"test": "Toxicity in BALB/c mouse xenografted with human MV4-11 cells assessed as change in body weight at 15 mg/kg, iv BID for 21 days", "format": "organism-based", "settings": "in vivo, 504 h, time 21 day"}, "MV4-11 [24]": {"test_system": "MV4-11", "test": "Antitumor activity against human MV4-11 cells xenografted in BALB/c mouse assessed as tumor growth inhibition at 15 mg/kg, iv QD for 21 days by vernier caliper analysis", "format": "functional", "settings": "MV4-11, 504 h, time 21 day, read-out: TGI"}, "MV4-11 [25]": {"test_system": "MV4-11", "test": "Antitumor activity against human MV4-11 cells xenografted in BALB/c mouse assessed as inhibition rate of tumor weight at 15 mg/kg, iv QD for 21 days by vernier caliper analysis", "format": "functional", "settings": "MV4-11, 504 h, time 21 day"}, "MV4-11 [26]": {"test_system": "MV4-11", "test": "Antitumor activity against human MV4-11 cells xenografted in BALB/c mouse assessed as tumor growth inhibition at 15 mg/kg, iv BID for 21 days by vernier caliper analysis", "format": "functional", "settings": "MV4-11, 504 h, time 21 day, read-out: TGI"}, "[27]": {"test": "Toxicity in BALB/c mouse xenografted with human MV4-11 cells assessed as white blood cell count at 15 mg/kg, iv for 21 days", "format": "organism-based", "settings": "in vivo, 504 h, time 21 day"}, "[28]": {"test": "Toxicity in BALB/c mouse xenografted with human MV4-11 cells assessed as neutrophil count at 15 mg/kg, iv for 21 days", "format": "organism-based", "settings": "in vivo, 504 h, time 21 day"}, "[29]": {"test": "Toxicity in BALB/c mouse xenografted with human MV4-11 cells assessed as platelet count at 15 mg/kg, iv for 21 days", "format": "organism-based", "settings": "in vivo, 504 h, time 21 day"}, "[30]": {"test": "Toxicity in BALB/c mouse xenografted with human MV4-11 cells assessed as morphological changes in liver at 15 mg/kg, iv for 21 days by H and E staining based analysis", "format": "organism-based", "settings": "in vivo, 504 h, time 21 day"}, "[31]": {"test": "Toxicity in BALB/c mouse xenografted with human MV4-11 cells assessed as morphological changes in lung at 15 mg/kg, iv for 21 days by H and E staining based analysis", "format": "organism-based", "settings": "in vivo, 504 h, time 21 day"}, "[32]": {"test": "Toxicity in ICR mouse assessed as change in body weight at 100 mg/kg, iv administered as single dose and measured for 14 days", "format": "organism-based", "settings": "in vivo, 336 h, time 14 day"}}, "note": "Calls of active or inactive are those of the source. The rule behind the calls is not given here."}
{"smiles": "CCN1CCN(c2ccc(C(=O)Nc3cc(-c4ccc5ncn(Cc6c(Cl)cccc6Cl)c5c4)[nH]n3)cc2)CC1", "values": [{"measurement": "Activity", "setting": "BaF3 [1]", "value": 43.16, "unit": "%"}, {"measurement": "IC50 at 72 h", "setting": "[2]", "value": 4.09, "unit": "µM"}, {"measurement": "IC50", "setting": "BaF3 [3]", "value": 0.0076, "unit": "µM"}, {"measurement": "Ratio IC50", "setting": "[4]", "value": "<0.2"}, {"measurement": "Ratio IC50", "setting": "[5]", "value": 5.58}, {"measurement": "Activity", "setting": "[6]", "value": "Non-Toxic"}, {"measurement": "Activity", "setting": "HCD-57", "value": "Active"}, {"measurement": "IC50", "setting": "HCT-116", "value": "> 10", "unit": "µM"}, {"measurement": "IC50", "setting": "MKN-45", "value": 4.03, "unit": "µM"}, {"measurement": "IC50", "setting": "MOLM-13", "value": 0.00985, "unit": "µM"}, {"measurement": "inhibition", "setting": "[7]", "value": "Dose-Dependent Effect"}, {"measurement": "inhibition", "setting": "[8]", "value": "Dose-Dependent Effect"}, {"measurement": "inhibition", "setting": "[9]", "value": "Dose-Dependent Effect"}, {"measurement": "viability at 0.01 µM", "setting": "MV4-11 [10]", "value": 67.9, "unit": "%"}, {"measurement": "Activity", "setting": "MV4-11 [11]", "value": 10.4, "unit": "%"}, {"measurement": "Activity", "setting": "MV4-11 [12]", "value": 1.3, "unit": "%"}, {"measurement": "Activity", "setting": "MV4-11 [13]", "value": 0.87, "unit": "%"}, {"measurement": "Activity", "setting": "MV4-11 [14]", "value": 24.5, "unit": "%"}, {"measurement": "Activity", "setting": "MV4-11 [15]", "value": 0.61, "unit": "%"}, {"measurement": "Activity", "setting": "MV4-11 [16]", "value": 90.3, "unit": "%"}, {"measurement": "Activity", "setting": "[17]", "value": "Non-Toxic"}, {"measurement": "half-life", "setting": "[18]", "value": 2.25, "unit": "h"}, {"measurement": "clearance", "setting": "[19]", "value": 40.2, "unit": "mL/min/kg"}, {"measurement": "Vd", "setting": "[20]", "value": 6.27, "unit": "L/kg"}, {"measurement": "AUC(0-t) at 24 h", "setting": "[21]", "value": 50.9, "unit": "ng·h/mL"}, {"measurement": "half-life", "setting": "[22]", "value": 3.58, "unit": "h"}, {"measurement": "Activity", "setting": "[23]", "value": "Non-Toxic"}, {"measurement": "inhibition in vivo at 15 mg/kg", "setting": "MV4-11 [24]", "value": 99.5, "unit": "%"}, {"measurement": "inhibition in vivo at 15 mg/kg", "setting": "MV4-11 [25]", "value": 82.7, "unit": "%"}, {"measurement": "inhibition in vivo at 15 mg/kg", "setting": "MV4-11 [26]", "value": 108, "unit": "%"}, {"measurement": "Activity", "setting": "[27]", "value": "Non-Toxic"}, {"measurement": "Activity", "setting": "[28]", "value": "Non-Toxic"}, {"measurement": "Activity", "setting": "[29]", "value": "Non-Toxic"}, {"measurement": "Activity", "setting": "[30]", "value": "Non-Toxic"}, {"measurement": "Activity", "setting": "[31]", "value": "Non-Toxic"}, {"measurement": "Activity", "setting": "[32]", "value": "Non-Toxic"}]}
